What follows are compounds tested against Axl kinase (Homo sapiens (Human), UniProt P30530) (assay: Axl kinase assay (AlphaScreen)). Conditions: activity level class.
Format: biochemical

Chain of Axl kinase (P30530 26-894): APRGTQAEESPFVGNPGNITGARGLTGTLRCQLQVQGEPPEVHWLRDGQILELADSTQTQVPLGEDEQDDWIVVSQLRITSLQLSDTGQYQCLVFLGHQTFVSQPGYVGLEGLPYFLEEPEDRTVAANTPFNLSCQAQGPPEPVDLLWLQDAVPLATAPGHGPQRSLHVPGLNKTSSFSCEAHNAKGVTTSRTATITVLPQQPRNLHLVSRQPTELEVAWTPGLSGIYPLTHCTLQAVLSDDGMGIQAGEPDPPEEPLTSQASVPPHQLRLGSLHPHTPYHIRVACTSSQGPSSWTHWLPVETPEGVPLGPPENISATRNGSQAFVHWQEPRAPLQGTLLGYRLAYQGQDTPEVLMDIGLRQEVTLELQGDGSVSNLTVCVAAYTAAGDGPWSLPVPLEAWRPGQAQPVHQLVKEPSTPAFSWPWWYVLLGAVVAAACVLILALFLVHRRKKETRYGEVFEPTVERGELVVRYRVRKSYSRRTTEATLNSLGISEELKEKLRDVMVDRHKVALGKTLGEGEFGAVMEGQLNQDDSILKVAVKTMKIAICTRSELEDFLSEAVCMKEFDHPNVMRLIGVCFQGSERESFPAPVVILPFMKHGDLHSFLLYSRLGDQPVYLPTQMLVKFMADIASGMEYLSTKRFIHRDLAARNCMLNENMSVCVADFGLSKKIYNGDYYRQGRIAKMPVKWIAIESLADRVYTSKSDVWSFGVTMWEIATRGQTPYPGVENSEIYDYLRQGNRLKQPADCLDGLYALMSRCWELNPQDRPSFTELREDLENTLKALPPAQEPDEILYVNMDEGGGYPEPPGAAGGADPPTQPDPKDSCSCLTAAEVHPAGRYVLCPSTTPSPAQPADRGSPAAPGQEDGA

IC50, < 30 nM:
COCCOc1nc(Nc2ccc(CN3CCN(C)CC3)cc2)nc2[nH]cc(-c3ccc(F)cc3)c12 [Compound 85, 5-(4-fluorophenyl)-4-(2-methoxyethoxy)-N-(4-((4-methylpiperazin-1-yl)methyl)phenyl)-7H-pyrrolo[2,3-d]pyrimidin-2-amine]
COCCOc1nc(Nc2ccc(CN3CCN(C)CC3)cc2)nc2[nH]cc(-c3ccc(OCc4ccccn4)cc3F)c12 [Compound 92, 5-(2-fluoro-4-(pyridin-2-ylmethoxy)phenyl)-4-(2-methoxyethoxy)-N-(4-((4-methylpiperazin-1-yl)methyl)phenyl)-7H-pyrrolo[2,3-d]pyrimidin-2-amine]
COCCOc1nc(Nc2ccc(CN3CCN(C)CC3)cc2)nc2[nH]cc(-c3ccc(OCc4ncccn4)cc3F)c12 [Compound 107, 5-(2-fluoro-4-(pyrimidin-2-ylmethoxy)phenyl)-4-(2-methoxyethoxy)-N-(4-((4-methylpiperazin-1-yl)methyl)phenyl)-7H-pyrrolo[2,3-d]pyrimidin-2-amine]
CN1CCN(Cc2ccc(Nc3nc(OC4CCCC4)c4c(-c5ccc(F)cc5F)c[nH]c4n3)cc2)CC1 [Compound 55, 4-(cyclopentyloxy)-5-(2,4-difluorophenyl)-N-(4-((4-methylpiperazin-1-yl)methyl)phenyl)-7H-pyrrolo[2,3-d]pyrimidin-2-amine]
CCN1CCN(Cc2ccc(Nc3nc(OC)c4c(-c5ccc(O)cc5)c[nH]c4n3)cc2)CC1 [Compound 48, 4-(2-((4-((4-ethylpiperazin-1-yl)methyl)phenyl)amino)-4-methoxy-7H-pyrrolo[2,3-d]pyrimidin-5-yl)phenol]
CCN1CCN(Cc2ccc(Nc3nc(OCCOC)c4c(-c5ccc(OCc6ncccc6C)cc5F)c[nH]c4n3)cc2)CC1 [Compound 112, N-(4-((4-ethylpiperazin-1-yl)methyl)phenyl)-5-(2-fluoro-4-((3-methylpyridin-2-yl)methoxy)phenyl)-4-(2-methoxyethoxy)-7H-pyrrolo[2,3-d]pyrimidin-2-amine]
COCCOc1nc(Nc2ccc(CN3CCC(C)CC3)cc2)nc2[nH]cc(-c3ccc(OCc4ncccn4)cc3F)c12 [Compound 34, 5-(2-fluoro-4-(pyrimidin-2-ylmethoxy)phenyl)-4-(2-methoxyethoxy)-N-(4-((4-methylpiperidin-1-yl)methyl)phenyl)-7H-pyrrolo[2,3-d]pyrimidin-2-amine]
CCNc1nc(Nc2ccc(CN3CCN(C)CC3)cc2)nc2[nH]cc(-c3ccc(F)cc3F)c12 [Compound 54, 5-(2,4-difluorophenyl)-N4-ethyl-N2-(4-((4-methylpiperazin-1-yl)methyl)phenyl)-7H-pyrrolo[2,3-d] pyrimidine-2,4-diamine]
COCCOc1nc(Nc2ccc(CN3CCN(C)CC3)cc2)nc2[nH]cc(-c3ccc(OCc4ncccc4C)cc3F)c12 [Compound 11, 5-(2-fluoro-4-((3-methylpyridin-2-yl)methoxy)phenyl)-4-(2-methoxyethoxy)-N-(4-((4-methylpiperazin-1-yl)methyl)phenyl)-7H-pyrrolo[2,3-d]pyrimidin-2-amine]
CN1CCN(Cc2ccc(Nc3nc(NC4CCOCC4)c4c(-c5ccc(F)cc5F)c[nH]c4n3)cc2)CC1 [Compound 75, 5-(2,4-difluorophenyl)-N2-(4-((4-methylpiperazin-1-yl)methyl)phenyl)-N4-(tetrahydro-2H-pyran-4-yl)-7H-pyrrolo[2,3-d]pyrimidine-2,4-diamine]
COCCOc1nc(Nc2ccc(CN3CCN(C)CC3)cc2)nc2[nH]cc(-c3ccc(OCn4ccccc4=O)cc3F)c12 [Compound 68, 1-((3-fluoro-4-(4-(2-methoxyethoxy)-2-((4-((4-methylpiperazin-1-yl)methyl)phenyl)amino)-7H-pyrrolo[2,3-d]pyrimidin-5-yl)phenoxy)methyl) pyridin-2(1H)-one]
CCN1CCN(Cc2ccc(Nc3nc(OC)c4c(-c5ccc(F)cc5F)c[nH]c4n3)cc2)CC1 [Compound 45, 5-(2,4-difluorophenyl)-N-(4-((4-ethylpiperazin-1-yl)methyl)phenyl)-4-methoxy-7H-pyrrolo [2,3-d]pyrimidin-2-amine]
CN1CCN(Cc2ccc(Nc3nc(OCC4CCCO4)c4c(-c5ccc(F)c(Cl)c5)c[nH]c4n3)cc2)CC1 (stereo not drawn) [Compound 77, 5-(3-chloro-4-fluorophenyl)-N-(4-((4-methylpiperazin-1-yl)methyl)phenyl)-4-((tetrahydrofuran-2-yl)methoxy)-7H-pyrrolo[2,3-d]pyrimidin-2-amine]
COCCOc1nc(Nc2ccc(CN3CCN(C)CC3)cc2)nc2[nH]cc(-c3ccc(S(=O)(=O)N(C)C)cc3)c12 [Compound 79, 4-(4-(2-methoxyethoxy)-2-((4-((4-methylpiperazin-1-yl)methyl)phenyl)amino)-7H-pyrrolo[2,3-d]pyrimidin-5-yl)-N,N-dimethylbenzene-sulfonamide]
COCCOc1nc(Nc2ccc(CN(C)C)cc2)nc2[nH]cc(-c3ccc(F)cc3F)c12 [Compound 80, 5-(2,4-difluorophenyl)-N-(4-((dimethylamino)methyl)phenyl)-4-(2-methoxyethoxy)-7H-pyrrolo[2,3-d]pyrimidin-2-amine]
COc1nc(Nc2ccc(CN3CCN(C)CC3)cc2)nc2[nH]cc(-c3ccc(O)cc3)c12 [Compound 17, 4-(4-methoxy-2-((4-((4-methylpiperazin-1-yl)methyl)phenyl)amino)-7H-pyrrolo [2,3-d]pyrimidin-5-yl)phenol]
COCCOc1nc(Nc2ccc(CN3CCN(C)CC3)cc2)nc2[nH]cc(-c3ccc(F)c(Cl)c3)c12 [Compound 50, 5-(3-chloro-4-fluorophenyl)-4-(2-methoxyethoxy)-N-(4-((4-methylpiperazin-1-yl)methyl)phenyl)-7H-pyrrolo[2,3-d]pyrimidin-2-amine]
CCN1CCN(Cc2ccc(Nc3nc(OCCOC)c4c(-c5ccc(OCc6ncccn6)cc5F)c[nH]c4n3)cc2)CC1 [Compound 39, N-(4-((4-ethylpiperazin-1-yl)methyl)phenyl)-5-(2-fluoro-4-(pyrimidin-2-ylmethoxy)phenyl)-4-(2-methoxyethoxy)-7H-pyrrolo[2,3-d]pyrimidin-2-amine]
CC(C)Oc1nc(Nc2ccc(CN3CCN(C)CC3)cc2)nc2[nH]cc(-c3ccc(F)cc3F)c12 [Compound 69, 5-(2,4-difluorophenyl)-4-isopropoxy-N-(4-((4-methylpiperazin-1-yl)methyl)phenyl)-7H-pyrrolo[2,3-d]pyrimidin-2-amine]
COc1nc(Nc2ccc(CN3CCC(C)CC3)cc2)nc2[nH]cc(-c3ccc(NS(C)(=O)=O)cc3)c12 [Compound 4, N-(4-(4-methoxy-2-((4-((4-methylpiperidin-1-yl)methyl)phenyl)amino)-7H-pyrrolo[2,3-d]pyrimidin-5-yl)phenyl)methane-sulfonamide]
COCCOc1nc(Nc2ccc(CN3CCN(C)CC3)cc2)nc2[nH]cc(-c3ccc4c(cnn4C)c3)c12 [Compound 97, 4-(2-methoxyethoxy)-5-(1-methyl-7H-indazol-5-yl)-N-(4-((4-methylpiperazin-1-yl)methyl)phenyl)-7H-pyrrolo[2,3-d]pyrimidin-2-amine]
